Measured values: patent US20200148682A1, “AKT ISOZYME-SPECIFIC COVALENT INHIBITORS DERIVED FROM REDOX-SIGNALING LIPIDS” (Cornell University, priority 2017, published 2020)
Several values for one entry are separate records, joined by “and”; a condition that tells them apart may be missing. Equal entries are not always repeated.

Experiments:
Type in all cases: cell-based
Akt3 (pT305) = biological target: T1, Akt3 (pT305) (Homo sapiens, UniProt Q9Y243); assay: Western blot and ratiometric ELISA of Akt phosphorylation in HEK293T cells; conditions: 5 μM, 48 hours
T1 construct: expressed in transfected cells; host or cells: HEK293T
Description: After this time, cells were lysed and analyzed by antibodies for phosphorylated T305 (pT305) of Akt3, Halo (Akt), and Actin (loading control). […] FIG. 23F is a graph showing proliferation curves. […] After this time, the number of viable cells was calculated using AlamarBlue®. Proliferation curves were fitted to the PI50 equation (EQN. 4). […] FIG. 23H is a graph showing the percentage of viable cells. […] The percentage of growth relative to DMSO-treated cells is shown for the 48 hour point and the 72 hour point. FIG. 23I is a schematic showing the different methods used to derive the data in 23H.
The proteins in gel were transferred onto a PVDF membrane in Towbin buffer at 90 V for 2 hours at 4° C. or at 33 V overnight at 4° C. […] Proteins were visualized using Pierce™ ECL Western Blotting Substrate (32106, Thermo Fisher), Pierce™ ECL2 Western Blotting Substrate (32132, Thermo Fisher) or SuperSignal™ Western Blot Enhancer (46640, Thermo Fisher), depending on the signal strength.
Anti-Halo antibody at 1 μg/mL concentration in sodium bicarbonate buffer (pH 9.6) was added to a 96-well white plate (80 μL […]) at 4° C. for 24 hours. After this, the incubation buffer was removed and the wells were washed once with TBS-T2 (100 mM Tris, 150 mM NaCl 0.03% Tween-20) and then blocked in 5% BSA in TBS-T2 (280 μL per well) for 3-5 hours at room temperature. […]

MDA-MB-468 cells [1] = assay: Cell cycle analysis using flow cytometry; conditions: for effect on cell cycle: 72 hours
Description: MDA-MB-468 cells in a 6-well plate at 10% confluence were treated with HNE alkyne or the indicated drug at PI60 or PI80 concentration for 72 hours at 37° C. Negative control contained the equivalent volume of DMSO. Cells were grown and analyzed in separate batches of 1-2 replicates per condition that were run 2-3 times each. Each time the data points were normalized to the control set for each batch. At the indicated time post compound treatment, the culture medium was aspirated and the adherent cells were detached from the plate using trypsin, quenched with complete media, centrifuged (700 g), washed once with PBS, centrifuged (700 g), resuspended in PBS, then fixed with 70% ethanol for 24 hours. The cell suspensions were spun down at 1,000 g and washed with 500 μl of PBS twice. Each cell pellet was treated with 500 μL staining solution containing 50 μl of Ribonuclease A (≥70 Kunitz units/mg proteins, R6513, Sigma-Aldrich) and 50 μl of a propidium iodide (1 mg/ml, Sigma-Aldrich) solution in PBS with 1% BSA. The resulting solution was incubated with agitation at room temperature for 30 min in the dark.
The stained cells were assayed on a BD LSR II flow cytometer. FlowJo® was used to deconvolute the signals. Cells were grouped first by forward and side scatter (area), then that group was regrouped using forward (width) versus forward (area) scatter to give single cells. Cells were than analyzed using cellular DNA content to quantitate the percentage of cells in the respective phases (G1, S, G2/M and sub-G0) of the cell cycle.

MDA-MB-468 cells [2] = assay: Assay for drug synergism with Akt isoform-specific knockdown; conditions: for Fold Selectivity (MK-FNE vs MK-2206 sensitization by knockdown): 72 hours
Description: MDA-MB-468 cells were plated in a 6-well plate to reach 80% confluence 10 hours post seeding. […] The cells were allowed to grow for 12 hours before addition of an equivalent volume of rinse medium containing varying concentrations of MK-2206, MK-FNE, or DMSO. The cells continued to grow for 72 hours before adding 1/10th volume of AlamarBlue® reagent to culture medium. The fluorescence emission signals at 590 nm were read by Cytation 3 cell imaging multi-mode reader (BioTeK) using an excitation wavelength of 560 nm. Curve fitting and data analysis were performed using Prism software. The effect of the different knockdowns on the drug action was expressed by calculating the fold selectivity (S): […]

[3] = knockdown of Akt3 (approximately 40-60%)

T1 sequence (Q9Y243 whole entry): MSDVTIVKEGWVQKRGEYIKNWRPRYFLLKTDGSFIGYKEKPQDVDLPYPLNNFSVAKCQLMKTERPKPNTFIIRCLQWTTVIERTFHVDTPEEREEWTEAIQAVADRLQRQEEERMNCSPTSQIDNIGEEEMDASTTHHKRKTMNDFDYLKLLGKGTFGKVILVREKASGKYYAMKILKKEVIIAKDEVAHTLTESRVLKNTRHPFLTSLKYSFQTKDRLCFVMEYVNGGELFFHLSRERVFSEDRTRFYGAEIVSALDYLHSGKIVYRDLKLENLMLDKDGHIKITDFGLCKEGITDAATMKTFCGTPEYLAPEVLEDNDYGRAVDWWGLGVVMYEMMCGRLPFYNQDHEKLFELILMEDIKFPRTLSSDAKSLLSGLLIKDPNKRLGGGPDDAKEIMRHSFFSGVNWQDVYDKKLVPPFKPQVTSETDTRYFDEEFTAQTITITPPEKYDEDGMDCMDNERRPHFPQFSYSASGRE

SMILES | phosphorylation of T305 of Akt3 (Akt3 (pT305)) | effect on cell cycle (MDA-MB-468 cells [1]) | G1/G0 (percentage of cells in phase) (MDA-MB-468 cells [1]; drug at PI60, 72 hours) | G2/M (percentage of cells in phase) (MDA-MB-468 cells [1]; drug at PI60, 72 hours) | S (percentage of cells in phase) (MDA-MB-468 cells [1]; drug at PI60, 72 hours) | subG0 (percentage of cells in phase) (MDA-MB-468 cells [1]; drug at PI60, 72 hours) | G1/G0 (percentage of cells in phase) (MDA-MB-468 cells [1]; drug at PI80, 72 hours) | G2/M (percentage of cells in phase) (MDA-MB-468 cells [1]; drug at PI80, 72 hours) | S (percentage of cells in phase) (MDA-MB-468 cells [1]; drug at PI80, 72 hours) | subG0 (percentage of cells in phase) (MDA-MB-468 cells [1]; drug at PI80, 72 hours) | sensitization to toxicity relative to control knockdown cells (MDA-MB-468 cells [2]; [3]) | sensitization to toxicity relative to control knockdown cells (MDA-MB-468 cells [2]; Akt1 or Akt2 knockdown (approximately 40-60%), on average) | Fold Selectivity (MK-FNE vs MK-2206 sensitization by knockdown) (MDA-MB-468 cells [2]; siAKT1, two siRNAs) | Fold Selectivity (MK-FNE vs MK-2206 sensitization by knockdown) (MDA-MB-468 cells [2]; siAKT3, two siRNAs)
C#CCCCC(O)/C=C/C(=O)NC1(c2ccc(-c3nc4ccn5c(=O)[nH]nc5c4cc3-c3ccccc3)cc2)CCC1.Cl (stereo not drawn) [MK-HNE, (E)-8-(4-(1-(4-Hydroxynon-2-en-8-ynamido)cyclobutyl)phenyl)-3-oxo-9-phenyl-2,3-dihydro-[1,2,4]triazolo[3,4-f][1,6]naphthyridin-7-ium Chloride] | did not affect phosphorylation levels | G1 arrest | 41.7 | 30.3 | 25.9 | 0.4 | 49 | 25.5 | 16.6 | 5.5 |  |  |  | 
NC1(c2ccc(-c3nc4ccn5c(=O)[nH]nc5c4cc3-c3ccccc3)cc2)CCC1 [MK-2206] | lowered phospho-T305 (pT305) levels considerably |  | 41.8 | 31.3 | 25.4 | 0.3 | 50.2 | 29.0 | 19.6 | 0.3 | 2-3 fold |  |  | 
C#CCCCC(F)/C=C/C(=O)NC1(c2ccc(-c3nc4ccn5c(=O)[nH]nc5c4cc3-c3ccccc3)cc2)CCC1.Cl (stereo not drawn) [MK-FNE, (E)-8-(4-(1-(4-Fluoronon-2-en-8-ynamido)cyclobutyl)phenyl)-3-oxo-9-phenyl-2,3-dihydro-[1,2,4]triazolo[3,4-f][1,6]naphthyridin-7-ium Chloride] |  | G1 arrest | 47.0 | 33.3 | 18.6 | 0.5 | 58.9 | 27.0 | 11.9 | 0.8 | around 8 fold | around 2 fold | 0.5 and 0.4 | 3.9 and 3.7
